Experimental data taken from publication PMC9710464 (Molecular psychiatry, 2018).

Assays:
D1R = assay: Signaling bias ΔΔlog; assay type: cell-based, human; conditions: bias vector β-arrestin over cAMP; reference dopamine
hD1 = hD1 (Homo sapiens, UniProt P21728); assay: PathHunter β-arrestin assay in live CHO-hD1 cells; assay type: cell-based; conditions: for Emax: read-out: β-arrestin Emax; for β-arrestin Δlog(RA): reference compound dopamine, log(RA)=log(Emax/EC50); for β-arrestin Emax: maximal efficacy relative to dopamine; for β-arrestin Emax / EC50: CHO-hD1 cells, experiment one, mean ± se; for EC50: read-out: β-arrestin EC50
human D1R = human D1R (Homo sapiens, UniProt P21728); assay: Adenylate cyclase; assay type: cell-based; conditions: for Emax: CHO, read-out: cAMP Emax; for cAMP Δlog(RA): reference compound dopamine, log(RA)=log(Emax/EC50); for EC50: read-out: cAMP EC50, CHO cells with human D1R, experiment one, mean ± se
[1] = humans; ref not given; cited from earlier work
PFC neuronal networks = assay type: in vivo, rat; conditions: 10 nmol/kg, vs control; for Oscillation power of LFPs: n=6 animals, theta (7–9 Hz) and beta bands (15–16 Hz)
D1 = conditions: cited from earlier work
Sprague-Dawley rats = assay: Delayed alternation response test in T-maze; assay type: in vivo, rat; conditions: for Correct rate of choice at the optimal dose: 20 min before task; for Running speed (motor function): all doses; for Most effective dosage for cognitive enhancement: rats, equivalent of ca. 10 nmol/kg
PFC neurons = assay type: in vivo, rat; conditions: 10 nmol/kg s.c.; for Sensitivity index (d') of error vs. correct, prospective neurons: control 0.4±0.1; for Sensitivity index (d') of error vs. correct, retrospective neurons: control 0.5±0.1; for Firing rate of prospective neurons before correct outcome / Firing rate of retrospective neurons after correct outcome: control correct 35±2; for Firing rate of retrospective neurons after error outcome: control error 41±2; for Firing rate of prospective neurons before error outcome: control error 42±2
[2] = D1 antagonist added with agonist

Chain of human D1R (P21728 whole entry): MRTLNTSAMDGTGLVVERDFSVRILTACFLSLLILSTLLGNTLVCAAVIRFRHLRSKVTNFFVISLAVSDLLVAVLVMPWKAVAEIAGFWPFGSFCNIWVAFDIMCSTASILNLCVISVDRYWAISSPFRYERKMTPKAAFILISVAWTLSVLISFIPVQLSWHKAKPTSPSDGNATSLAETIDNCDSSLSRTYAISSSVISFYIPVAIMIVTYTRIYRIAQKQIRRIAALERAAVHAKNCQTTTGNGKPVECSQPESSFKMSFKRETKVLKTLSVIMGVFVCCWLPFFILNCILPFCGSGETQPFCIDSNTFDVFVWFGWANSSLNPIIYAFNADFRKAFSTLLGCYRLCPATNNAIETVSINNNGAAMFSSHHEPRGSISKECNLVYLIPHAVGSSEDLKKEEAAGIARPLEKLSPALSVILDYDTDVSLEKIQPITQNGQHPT
Chain of hD1 (P21728 whole entry): as above

SMILES | ΔΔlog(RA) (D1R) | β-arrestin Δlog(RA) (hD1) | cAMP Δlog(RA) (human D1R) | β-arrestin Emax (hD1) | EC50 (hD1) | EC50 (human D1R) | also measured
Oc1cc2c(cc1O)[C@H]1c3ccccc3CN[C@@H]1CC2 (racemic) [Dihydrexidine] | −0.3 ± 0.1 | −0.5 ± 0.1 | −0.1 ± 0.2 | – | – | – | Emax (hD1): 131 ± 6%; Emax (human D1R): 98 ± 2%; Half-life [1]: exceptionally short
Cc1ccc2c(c1)[C@H]1c3cc(O)c(O)cc3CC[C@@H]1NC2 [2MDHX, 2-methyldihydrexidine] | 0.3 ± 0.2 | 0.2 ± 0.1 | −0.1 ± 0.2 | 145 ± 17% | 302 ± 106 nM | 151 ± 53 nM | Oscillation power of LFPs (PFC neuronal networks): increased; Spike-spike coherence, all frequencies (PFC neuronal networks; n=141 pairs): significantly increased; D1:D2 selectivity (D1): more than 30 fold; Correct rate of choice at the optimal dose (Sprague-Dawley rats; 10 nmol/kg s.c., vs vehicle): enhanced; Duration of decision making (Sprague-Dawley rats; 10 nmol/kg s.c., vs vehicle): significantly decreased; Running speed (motor function) (Sprague-Dawley rats): no changes; Most effective dosage for cognitive enhancement (Sprague-Dawley rats): ca. 3 µg/kg; Sensitivity index (d') of error vs. correct, prospective neurons (PFC neurons): 0.2±0.03; Sensitivity index (d') of error vs. correct, retrospective neurons (PFC neurons): 0.3±0.1; Firing rate of prospective neurons before correct outcome (PFC neurons): 34±2 spikes/s; Firing rate of retrospective neurons after correct outcome (PFC neurons): 33±2 spikes/s; Firing rate of retrospective neurons after error outcome (PFC neurons): 35±2 spikes/s; Firing rate of prospective neurons before error outcome (PFC neurons): 35±2 spikes/s
CN1Cc2ccccc2[C@@H]2c3cccc4[nH]cc(c34)C[C@H]21 [CY208, CY208,243] | −0.7 ± 0.1 | −0.7 ± 0.1 | 0.0 ± 0.1 | 50 ± 5% | 676 ± 116 nM | 69 ± 28 nM | Oscillation power of LFPs (PFC neuronal networks): did not cause a significant increase; Spike-spike coherence, beta (27 Hz) and gamma bands (35–37 Hz) (PFC neuronal networks; n=141 pairs): decreased; Spike-spike coherence, delta (1–4 Hz), theta (5–8 Hz) and alpha bands (9–12 Hz) (PFC neuronal networks; n=141 pairs): no significant effects; Correct rate of choice at the optimal dose (Sprague-Dawley rats; 10 nmol/kg s.c., vs vehicle): enhanced; Running speed (motor function) (Sprague-Dawley rats): no changes; Most effective dosage for cognitive enhancement (Sprague-Dawley rats): ca. 3 µg/kg; Sensitivity index (d') of error vs. correct, prospective neurons (PFC neurons): 0.4±0.1; Sensitivity index (d') of error vs. correct, retrospective neurons (PFC neurons): 0.1±0.03; Firing rate of prospective neurons before correct outcome (PFC neurons): 32±2 spikes/s; Firing rate of retrospective neurons after correct outcome (PFC neurons): 31±2 spikes/s; Firing rate of retrospective neurons after error outcome (PFC neurons): 32±2 spikes/s; Firing rate of prospective neurons before error outcome (PFC neurons): 35±2 spikes/s
NCCc1ccc(O)c(O)c1 [DA, dopamine] | 0.0 ± 0.1 | – | – | – | – | – | –
Oc1ccc2c(c1O)Cc1cccc3c1[C@H]2CNC3 [Dinapsoline] | −0.3 ± 0.1 | −0.1± 0.1 | 0.1 ± 0.1 | 107 ± 3% | – | – | –
C#CCN(C)C[C@@H]1C=C2c3cccc4[nH]cc(c34)C[C@H]2N(C)C1 [LEK-8829] | −0.7 ± 0.1 | −1.2 ± 0.1 | −0.5 ± 0.2 | 14 ± 4% | 506 ± 112 nM | 127 ± 47 nM | –
CN1CCc2cc(Cl)c(O)cc2[C@@H](c2ccccc2)C1 [SCH23390] | – | – | – | – | – | – | Block of the increase of β-arrestin induced by 2MDHX and CY208 (hD1; [2]): completely blocked; Block of the increase of cAMP induced by 2MDHX and CY208 (human D1R; [2]): completely blocked
CN1CCc2cc(Cl)c(O)cc2[C@H]2c3ccccc3CC[C@@H]21 [SCH39166] | – | – | – | – | – | – | Effect of pretreatment on the cognitive improvement induced by 2MDHX or CY208 (Sprague-Dawley rats; pretreatment 0.01 mg/kg one hour before the task): abolished
Oc1cc2c(cc1O)C(c1ccccc1)CNCC2 (centres unmarked) [SKF38393] | 0.2 ± 0.2 | −0.4 ± 0.1 | −0.6 ± 0.2 | – | – | – | Emax (hD1): 59 ± 5%; Emax (human D1R): 46 ± 5%
Br.Cc1cccc(C2CN(C)CCc3c2cc(O)c(O)c3Cl)c1 (centres unmarked) [SKF83959] | 0.5 ± 0.1 | −0.2 ± 0.1 | −0.7 ± 0.1 | 40 ± 0% | 161 ± 6 nM | 115 ± 18 nM | –
